Experimental data taken from publication PMC11999280, “Design and screening of novel endosomal escape compounds that enhance functional delivery of oligonucleotides in vitro” (Molecular Therapy. Nucleic Acids, 2025).

Columns and labels:
[1] = tested on: HeLa_Luc705 cells (pLuc/705 splice-switching reporter); assay: Functional 705-SSO delivery, luciferase splice-switching assay; format: cell-based; conditions: for Luciferase expression compared to reference: HeLa-Luc705 + 1 µM SSO, mean from >3 independent experiments
How it was run: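 Splice correction was measured as firefly luciferase luminescence in Triton X-100 lysates taken 24 h after enhancer treatment. Before treatment, the 10,000 cells/well had spent 24 h with 1–2 μM 705-SSO (2′-OMe, phosphorothioate). For comparison, 100–200 nM SSO was lipofected with LF2000.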

[2] = tested on: PPIB mRNA in primary human hepatocytes; assay: PPIB siRNA knockdown, qPCR; format: cell-based; conditions: EEE32 at 2 μM with GalNAc-siPPIB
Description: Studies of siRNA knockdown therapeutics were performed in primary human hepatocytes using EEE32-mediated enhancement. We aimed to target peptidylpropyl isomerase B (PPIB) mRNA by using siRNA (siPPIB) either alone or together with the EEE32 and comparing them with GalNAc-conjugated siRNA (GalNAc-siPPIB), which is considered a potent human liver uptake enhancer.[30] […] However, the use of EEE32 at a 2-μM concentration enhanced GalNAc-siPPIB activity, improving the knockdown capacity by approximately 10-fold (Figure 5B, top). Additionally, no significant differences indicating compromised cell viability were observed when measuring systematic decreases in RNA yield from both groups (Figure 5B, bottom).
Human primary hepatocytes obtained from a commercial supplier (QNT lot, BioIVT) were cultured in rat tail collagen I-coated 96-well plates (Corning, catalog no. 354407) using William’s E Medium (A1217601,Thermo Fisher) supplemented with thawing and plating supplements (Thermo Fisher, catalog no. CM3000) (day 0). […]

## COc1nn(C2CCNC(C)(C)C2)cc1Nc1ncc(F)c(-n2ccc3c(C#N)cccc32)n1 (stereo not shown) [EEE32]
[1]; EEE 0.5 µM
  Luciferase expression compared to reference: 3.743
[1]; EEE 2 µM
  Luciferase expression compared to reference: 115.294
[1]; EEE 4 µM
  Luciferase expression compared to reference: 111.401
[1]; EEE 5 µM
  Luciferase expression compared to reference: 66.337
[1]; dose response, luciferase readout at time points after EEE addition
  Splice-switching with 24-h SSO pre-incubation relative to SSO co-treatment: around 17 times
[1]; using 2–2.5 μM EEE
  Splice-switching enhancement: above 100 fold
[2]
  Improvement of GalNAc-siPPIB knockdown capacity: approximately 10 fold
